Results taken from patent EP0825187A1, “Condensed pyridazinyl guanidines, their production and use” (TAKEDA CHEMICAL INDUSTRIES, LTD., priority 1996, dated 1998).
Where a name gives a salt, the structure may show the parent alone.

Biological target: T1, Na-H exchange (Rattus norvegicus, UniProt P26431)
T1 construct: The blood was centrifuged at 3000 r.p.m. for […] to obtain platelet rich plasma (PRP); from tissue; host or cells: platelets in platelet rich plasma from the blood of male Wistar rats
T1 sequence (P26431 whole entry): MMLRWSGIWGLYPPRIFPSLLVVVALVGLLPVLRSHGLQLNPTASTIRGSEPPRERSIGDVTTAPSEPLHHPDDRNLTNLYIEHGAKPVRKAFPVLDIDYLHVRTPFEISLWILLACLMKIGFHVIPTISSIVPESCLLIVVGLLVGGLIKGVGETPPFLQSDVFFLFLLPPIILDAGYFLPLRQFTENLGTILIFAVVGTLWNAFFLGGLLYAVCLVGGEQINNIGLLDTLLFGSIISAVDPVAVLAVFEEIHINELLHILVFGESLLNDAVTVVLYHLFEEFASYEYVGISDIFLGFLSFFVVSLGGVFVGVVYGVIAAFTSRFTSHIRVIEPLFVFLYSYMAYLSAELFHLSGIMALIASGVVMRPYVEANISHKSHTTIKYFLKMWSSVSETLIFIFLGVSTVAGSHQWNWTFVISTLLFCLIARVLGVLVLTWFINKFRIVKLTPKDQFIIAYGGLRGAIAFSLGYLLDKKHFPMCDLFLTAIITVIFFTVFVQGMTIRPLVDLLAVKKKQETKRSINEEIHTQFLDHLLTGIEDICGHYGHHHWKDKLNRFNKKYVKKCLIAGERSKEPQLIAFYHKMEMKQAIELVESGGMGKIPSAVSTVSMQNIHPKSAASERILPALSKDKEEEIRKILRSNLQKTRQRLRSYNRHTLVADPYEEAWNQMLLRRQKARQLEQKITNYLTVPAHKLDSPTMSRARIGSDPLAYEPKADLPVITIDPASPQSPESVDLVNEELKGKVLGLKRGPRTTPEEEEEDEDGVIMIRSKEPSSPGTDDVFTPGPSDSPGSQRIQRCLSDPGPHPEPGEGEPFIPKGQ
Experiment: Inhibition of platelet swelling (light transmittance of platelet rich plasma after sodium propionate), indicator of Na-H exchange inhibition
Assay type: cell-based, Wistar rats
Details: rat PRP, value one minute after sodium propionate solution (pH 6.7, 37 °C), difference between 1% DMSO and HOE-642 (10^-5 M) taken as 100
Description: Male Wistar rats (350-450 g) were anesthetized with sodium pentobarbital (50 mg/kg, i.p.). Using a disposable syringe pre-filled with 1.5 ml of a 3.8% citric acid solution, 8.5 ml of blood was collected from the abdominal aorta. The blood was centrifuged at 3000 r.p.m. for […] to obtain platelet rich plasma (PRP). The number of platelets in the PRP was counted by an automatic hemocytometer (Sysmex 2500, TOA Medical Electronics). The PRP was diluted with physiological saline to make the concentration of 40 x 10^4 platelets per microliter. A platelet aggregometer (Hematoracer, Niko Bioscience) was used for mesurement of the platelet swelling. 200 Microliters of the PRP was poured into a cuvette and 600 µl of a sodium propionate solution (Na propionate 135, glucose 10: HEPES 20, CaCl2 1, MgCl2 1, Units mM, pH 6.7) was added while stirring at 37 °C. The change in the light transmittance of PRP which was an indicator of the platelet swelling was recorded on a plotter. The test compound was added 3 minutes before addition of the sodium propionate solution. Test compounds were dissolved in dimethyl sulfoxide (DMSO). The final concentration of DMSO was adjusted to 1%. The values obtained one minute after addition of the sodium propionate solution were subjected to analysis. The rate of the inhibition of the test compound on the increase of the light transmittance was calculated designating the difference obtained between the treatments with 1% DMSO and HOE-642 (10^-5 M) as 100. […]

| Compound | Inhibitory ratio (%) (1µM) | Inhibitory ratio (%) (3µM) |
| --- | --- | --- |
| NC(N)=Nc1nnc(-c2ccccc2)c2cccc(Br)c12 [Compound 13, 8-bromo-4-phenylphthalazin-1-ylguanidine] | 60 | 99 |
| NC(N)=Nc1nnc(-c2ccccc2)c2cccc(I)c12 [Compound 4, 8-iodo-4-phenylphthalazin-1-ylguanidine hydrochloride] | 66 | 78 |
| Cc1ccccc1-c1nnc(N=C(N)N)c2c(Br)cccc12 [Compound 24, 8-bromo-4-(2-methylphenyl)phthalazin-1-ylguanidine] | 62 | 78 |

Second part, the compound after the results:

| Inhibitory ratio (%) (1µM) | Inhibitory ratio (%) (3µM) | Compound |
| --- | --- | --- |
| 58 | 78 | NC(N)=Nc1nnc(-c2ccc(F)cc2)c2cccc(I)c12 [Compound 36, 4-(4-fluorophenyl)-8-iodophthalazin-1-ylguanidine] |
| 66 | 96 | Cc1ccccc1-c1nnc(N=C(N)N)c2c(I)cccc12 [Compound 28, 8-iodo-4-(2-methylphenyl)phthalazin-1-ylguanidine] |
| 55 | 73 | 8-methyl-4-(2-methylphenyl)phthalazin-1-ylguanidine [Compound 44] |
